Laboratory results: publication PMC2737586 (Chemistry & biology, 2009)

How the values were obtained:
Format in all cases: biochemical
[1] = biological target: ValD (Streptomyces hygroscopicus, UniProt Q1L2K7, E366A); assay: TLC and 1H NMR of epimerization, relative activity; conditions: TLC after 30 min
[2] = biological target: ValD (Streptomyces hygroscopicus, UniProt Q1L2K7, E107A); assay: TLC of epimerization, relative activity; conditions: TLC after 30 min
[3] = biological target: N-terminal half of ValD (Streptomyces hygroscopicus, UniProt Q1L2K7); assay: in vitro epimerase assay
[4] = biological target: ValD (Streptomyces hygroscopicus, UniProt Q1L2K7, E183A); assay: TLC and 1H NMR of epimerization, relative activity; conditions: TLC after 30 min
[5] = biological target: ValD (Streptomyces hygroscopicus, UniProt Q1L2K7, H315N); assay: TLC of epimerization, relative activity; conditions: TLC after 30 min
[6] = biological target: C-terminal half of ValD (Streptomyces hygroscopicus, UniProt Q1L2K7); assay: in vitro epimerase assay
[7] = biological target: ValD (Streptomyces hygroscopicus, UniProt Q1L2K7, H130N); assay: TLC of epimerization, relative activity; conditions: TLC after 30 min
[8] = biological target: ValD (Streptomyces hygroscopicus, UniProt Q1L2K7, H229N); assay: TLC and 1H NMR of epimerization, relative activity; conditions: TLC after 30 min
[9] = biological target: ValD (Streptomyces hygroscopicus, UniProt Q1L2K7, E291A); assay: TLC of epimerization, relative activity; conditions: TLC after 30 min
[10] = biological target: ValD (Streptomyces hygroscopicus, UniProt Q1L2K7, H44N); assay: TLC and 1H NMR of epimerization, relative activity; conditions: TLC after 30 min

## O=C1C[C@@](O)(CO)[C@@H](O)[C@H](O)[C@@H]1O [2-epi-5-epi-valiolone]
[1]
  TLC and 1H NMR of epimerization, relative activity: H44N, E107A, and E366A proteins had significantly reduced activities
[2]
  TLC of epimerization, relative activity: H44N, E107A, and E366A proteins had significantly reduced activities
[3]
  in vitro epimerase assay (data not shown): truncated proteins have a significantly reduced capacity to convert 2-epi-5-epi-valiolone to 5-epi-valiolone (data not shown)
[4]
  TLC and 1H NMR of epimerization, relative activity: H130N, E183A, H229N, and E291A proteins had a comparable epimerase activity
[5]
  TLC of epimerization, relative activity: Mutation at H315 appeared to have moderate effect on the epimerase activity
[6]
  in vitro epimerase assay (data not shown): truncated proteins have a significantly reduced capacity to convert 2-epi-5-epi-valiolone to 5-epi-valiolone (data not shown)
[7]
  TLC of epimerization, relative activity: H130N, E183A, H229N, and E291A proteins had a comparable epimerase activity
[8]
  TLC and 1H NMR of epimerization, relative activity: H130N, E183A, H229N, and E291A proteins had a comparable epimerase activity
[9]
  TLC of epimerization, relative activity: H130N, E183A, H229N, and E291A proteins had a comparable epimerase activity
[10]
  TLC and 1H NMR of epimerization, relative activity: H44N, E107A, and E366A proteins had significantly reduced activities
